The values below come from PMC9540667, “Novel insights on [1,2]oxazolo[5,4‐e]isoindoles on multidrug resistant acute myeloid leukemia cell line” (Drug Development Research, 2022).

Series [1] has as its system HL‐60R cells. Nature of the series: Cell death by flow cytometry (propidium iodide, preG0-G1 events). It counts as cell-based. As for the experimental part: Cells were collected and washed twice with ice‐cold PBS and then resuspended in a hypotonic fluorochrome solution containing propidium iodide (PI) 50 µg/ml in 0.1% sodium citrate plus 0.03% (v/v) Nonidet P‐40, at 1 × 10^6/ml. After incubation (at least 1 h at 4°C) in this solution, the samples were filtered through nylon cloth, 40 µm mesh, and their fluorescence was analyzed using a FACSCanto instrument (Becton Dickinson). The data were analyzed with BD FACSDiva software v.6.1.2. (Becton Dickinson). Cell death was determined by evaluating the percentage of events accumulated in the preG0‐G1 position.
In general terms: Flow cytometry measures light scatter and fluorescence of single cells or particles in a stream.

The test system of another series is 1‐7HB2 cells. Nature of the series: Cell growth assay (MTS), non-tumorigenic 1-7HB2 cells. In kind it is cell-based. As to conditions: 72 h, the maximum concentration used in the MTS assay is reported. As for the experimental part:
(§1) HL‐60 cells were obtained from ATCC® (CCL‐240), whereas its variant HL‐60R was selected for MDR by exposure to gradually increasing concentrations of doxorubicin. MCF‐7 cells were obtained from ATCC® (HTB‐22). The nontumorigenic cell lines hTERT‐RPE‐1 (ATCC, CRL‐4010) and 1‐7HB2 (ECACC 10081201‐Cancer Research Technology) was kindly provided by Prof. Patrizia Cancemi and Prof. Giulio Ghersi (STEBICEF Department, University of Palermo, Italy), respectively. Cells were cultured in a humidified atmosphere at 37°C in 5% CO2. After obtaining the cells, the first passage carried out was assigned passage number 1. Cells with a narrow range of passage number […] were routinely tested for Mycoplasma contamination and were used for all experiments. HL‐60 and HL‐60R cells were cultured in Roswell Park Memorial Institute (RPMI) 1640, while MCF‐7, hTERT‐RPE‐1, and 1‐7HB‐2 cells were cultured in Dulbecco's Modified Eagle Medium (DMEM) (HyClone Europe Ltd.) low glucose, in particular only for 1‐7HB‐2 cells supplemented with hydrocortisone (5 μg/ml) and insulin (10 μg/ml). All media were supplemented with 10% heat‐inactivated fetal calf serum, 2 mM L‐glutamine, 100 U/ml penicillin, and 100 μg/ml streptomycin (all reagents were from EuroClone S.p.A.; GE Healthcare Life Sciences).
(§2) Cells were seeded at 5 × 10^3 cells/well onto 96 well plates and incubated overnight at 37°C. At time 0, the medium was replaced with fresh complete medium supplemented with the [1,2]oxazolo[5,4‐e]isoindoles at large concentrations range. Following 72 h of treatment, 15 µl commercial solution obtained from Promega Corp. containing 3‐(4,5‐dimethylthiazol‐2‐yl)−5‐(3‐carboxymethoxyphenyl)−2‐(4‐sulphophenyl)−2H‐tetrazolium (MTS) and phenazine ethosulfate was added. The plates were incubated in a humidified atmosphere at 37°C in 5% CO2 for 2 h, and the bioreduction of MTS dye was evaluated by measuring the absorbance of each well at 490 nm using a microplate absorbance reader (iMark Microplate Reader; Bio‐Rad Laboratories, Inc.). Cell growth inhibition was expressed as a percentage of the absorbance of the control cells. Data were expressed as mean ± standard error (SE) of at least three different experiments performed in triplicate.

In series [2] the test system is XIAP, IAP‐1, Bcl‐2 in HL‐60R cells. The experiment in a line: Western blot of antiapoptotic factors (survivin, XIAP, IAP-1, Bcl-2). The settings on record: co-treatment of 4k and PTX. It counts as cell-based. The protocol: Whole‐cell lysates were obtained from HL‐60R cells using RIPA buffer (Santa Cruz Biotechnology Inc.) and 25 µg protein was subjected to 10% SDS‐PAGE and transferred to nitrocellulose membrane (Amersham, Pharmacia Biotech) using a semi‐dry fast blot apparatus (Bio‐Rad). Membranes were blocked with 5% (w/v) BSA in PBS‐0.1% (v/v) Tween 20 for 1 h and then filters were incubated with primary antibodies raised against GAPDH (1:20,000; Sigma‐Aldrich Srl Milan), XIAP (1:500; Cell Signaling Technology, Inc), survivin (1:2000; Abcam Limited), Bcl‐2 (1:1000; Santa Cruz Biotechnology Inc.) and IAP‐1 (1:1000; Cell Signaling Technology, Inc). Hybridization was visualized using an enhanced chemiluminescence detection kit (SuperSignal West Femto Maximum Sensitivity Substrate, Thermo Scientific Life Technologies Italia) and the Versa DOC imaging system (BioRad Laboratories). Immunoblots were quantified by densitometry measurements after normalization with glyceraldehyde‐3‐phosphate dehydrogenase and results were expressed as fold changes.
(In general: A western blot detects proteins with antibodies after separation by electrophoresis.)

The test system of another series is MCF‐7 cells. The experiment in a line: Cell growth assay (MTS), MCF-7 breast cancer cells. As to conditions: Homo sapiens, MCF7, 72 h, the maximum concentration used in the MTS assay is reported. It counts as cell-based. As for the experimental part: as §1, §2
For orientation: Tetrazolium dyes change colour on reduction, which living cells bring about.

A further series has as its system hTERT‐RPE‐1 cells. Nature of the series: Cell growth assay (MTS), non-tumorigenic hTERT-RPE-1 cells. In kind it is cell-based. The settings on record: hTERT-RPE1, 72 h, the maximum concentration used in the MTS assay is reported, read-out: h‐TERT‐RPE‐1 (IC50). The protocol: as §1, §2
Series [3] has as its target T1, recombinant human P‐gp membranes (Homo sapiens, UniProt P08183).
T1 construct: purchased Promega
Nature of the series: P-gp ATPase activity (Pgp-Glo assay). In kind it is biochemical. The settings on record: compound at its IC50; verapamil 0.5 mM. As for the experimental part: P‐gp ATPase activity was performed with Pgp‐Glo™ Assay Systems (Promega) following manufacturer's instructions. The compounds 4e and 4k, at their IC50s (test compound [TC]) were added to a 96‐well white plate in duplicate and incubated with recombinant human P‐gp membranes. The compound Na3VO4 (0.25 mM) was used as the selective inhibitor of P‐gp ATPase activity while negative control (no treatment [NT]) with only Pgp‐GLO assay buffer was used to provide a measure of unregulated ATPase activity. Verapamil (0.5 mM) is a P‐gp substrate that stimulates P‐gp ATPase activity and represents the positive control for drug stimulation of P‐gp ATPase activity. In fact, it is not a pure inhibitor of P‐gp function as well as Na3VO4, but in association with another P‐gp substrate like doxorubicin, it behaves as a competitive antagonist, that is, an efflux inhibitor. […]
Luminescence was measured using a GLOMAX Multidetection System (Promega). The data were presented as change in luminescence (ΔRLU), calculated as follows: ΔRLUbasal is the difference between the average luminescent signals from Na3VO4‐treated samples (RLUNa3VO4) and untreated (NT) samples (RLUNT), ΔRLUTC that reflects P‐gp ATPase activity in the presence of the test compounds, is the difference between the average luminescent signals from Na3VO4‐treated samples (RLUNa3VO4) and test compound‐treated samples (RLUTC).

The subject of a further series is HL‐60 cells. Nature of the series: Cell growth assay (MTS), HL-60 cells. It counts as cell-based. As to conditions: Homo sapiens, HL-60, 72 h of treatment, mean ± SE. The protocol:
as §1, §2

In another series the test system is tubulin in HL‐60 cells. The experiment in a line: Tubulin polymerization assay (soluble/polymerized fraction, western blot), HL-60. It counts as cell-based. The settings on record: HL-60, 24 h at the IC50 at 72 h. As for the experimental part: (§3) To separate cytosolic and cytoskeletal‐associated proteins, cells were rinsed in PEM buffer (0.1 M PIPES, pH 6.94; 2 mM EGTA; 1 mM MgCl2; 10% glycerol; 1 µM protease inhibitors cocktail; 0.5% Nonidet NP‐40), lysed at room temperature for 10 min with the same buffer (200 µl). After centrifugation (14,000 rpm at 4°C for 10 min), the soluble fraction (supernatant) was separated from polymerized fraction (pellet); the latter was resuspended in the same buffer (200 µl).
(§4) Both the fractions were then diluted 3:1 with 4 × SDS‐PAGE sample buffer. Proteins were separated by SDS‐PAGE, and tubulin distribution was analyzed by immunoblotting using anti‐α‐tubulin antibody (Sigma‐Aldrich). Hybridization was visualized using an enhanced chemiluminescence detection kit (SuperSignal West Femto Maximum Sensitivity Substrate, Thermo Scientific Life Technologies Italia) and the Versa DOC imaging system (BioRad Laboratories).

Another series deals with HL‐60R cell line. Nature of the series: Intracellular accumulation of doxorubicin (flow cytometry). It counts as cell-based. As for the experimental part:
The effects of 4e and 4k on intracellular accumulation of doxorubicin were evaluated in the HL‐60R cell line. […] After 24 h of incubation doxorubicin 2 µM was added for 1 h. The cells were subsequently washed with PBS twice and then resuspended in a final volume of 400 µl of PBS. The fluorescence intensity of doxorubicin was measured by flow cytometry using a FACSAria III instrument (Becton Dickinson).

Series [4] has as its system HL‐60R cells. The experiment in a line: Cell growth assay (MTS), HL-60R MDR variant. It counts as cell-based. As to conditions: HL60R, 72 h of treatment, mean ± SE. The protocol: as §1, §2
For the next series, the system named is tubulin in HL‐60R cells. Nature of the series: Tubulin polymerization assay (soluble/polymerized fraction, western blot), HL-60R. In kind it is cell-based. The settings on record: 24 h at the IC50 at 72 h. The protocol:
as §3, §4

In series [5] the test system is HL‐60R cells. Nature of the series: Viable cell count with Trypan blue exclusion test (cotreatments). It counts as cell-based. The protocol: Potentiation or synergism due to cotreatments were evaluated by viable cell count with Trypan blue exclusion test. Data were expressed as mean ± SE of at least three different experiments performed in duplicate.

SMILES strings stand for the structures.

T1 sequence (P08183 whole entry): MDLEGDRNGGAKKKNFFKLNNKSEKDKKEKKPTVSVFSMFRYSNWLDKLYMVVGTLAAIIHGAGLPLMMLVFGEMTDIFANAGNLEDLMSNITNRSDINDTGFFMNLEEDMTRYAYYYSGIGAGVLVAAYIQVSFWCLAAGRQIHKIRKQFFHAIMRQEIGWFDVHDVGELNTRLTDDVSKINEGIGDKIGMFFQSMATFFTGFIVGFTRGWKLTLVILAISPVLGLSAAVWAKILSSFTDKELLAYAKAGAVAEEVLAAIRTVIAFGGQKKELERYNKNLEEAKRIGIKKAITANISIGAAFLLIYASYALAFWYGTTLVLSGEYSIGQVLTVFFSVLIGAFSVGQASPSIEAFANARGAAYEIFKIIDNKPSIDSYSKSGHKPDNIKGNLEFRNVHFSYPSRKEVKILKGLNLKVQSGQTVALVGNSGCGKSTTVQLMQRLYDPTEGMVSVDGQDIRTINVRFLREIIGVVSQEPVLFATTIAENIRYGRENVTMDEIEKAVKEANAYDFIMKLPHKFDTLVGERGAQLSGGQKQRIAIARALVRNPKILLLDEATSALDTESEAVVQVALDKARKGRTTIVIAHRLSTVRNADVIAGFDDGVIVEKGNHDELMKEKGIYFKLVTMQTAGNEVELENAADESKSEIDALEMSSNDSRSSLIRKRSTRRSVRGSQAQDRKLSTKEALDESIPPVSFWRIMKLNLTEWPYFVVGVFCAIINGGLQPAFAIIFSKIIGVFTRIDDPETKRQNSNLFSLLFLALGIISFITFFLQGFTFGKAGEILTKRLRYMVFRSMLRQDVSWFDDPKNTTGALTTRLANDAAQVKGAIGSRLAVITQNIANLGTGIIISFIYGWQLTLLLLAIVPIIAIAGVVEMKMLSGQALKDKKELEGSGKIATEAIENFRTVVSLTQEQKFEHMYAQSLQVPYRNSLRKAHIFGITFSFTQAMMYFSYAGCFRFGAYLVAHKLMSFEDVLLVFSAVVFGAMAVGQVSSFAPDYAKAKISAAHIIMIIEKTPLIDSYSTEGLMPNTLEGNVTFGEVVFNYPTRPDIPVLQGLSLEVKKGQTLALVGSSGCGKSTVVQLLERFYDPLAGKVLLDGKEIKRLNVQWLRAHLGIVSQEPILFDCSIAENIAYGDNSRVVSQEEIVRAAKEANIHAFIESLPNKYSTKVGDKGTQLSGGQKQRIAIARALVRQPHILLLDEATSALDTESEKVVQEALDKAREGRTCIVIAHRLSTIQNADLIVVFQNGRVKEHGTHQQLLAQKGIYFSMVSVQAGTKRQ

For the molecule `COc1ccc(Cn2cc3c(c2-c2cc(OC)c(OC)c(OC)c2)CCc2cnoc2-3)cc1OC` [4k, 7‐(3,4‐dimethoxybenzyl)−6‐(3,4,5‐trimethoxyphenyl)−5,7‐dihydro‐4H‐[1,2]oxazolo[5,4‐e]isoindole], the “synergistic effect in induction of cell death” value in the series with HL‐60R cells [1] (HL-60R, in combination with PTX and VIN) was “strong synergistic effect”. Besides, the IC50 is > 20 µM in the series with 1‐7HB2 cells; > 50 µM with MCF‐7 cells; > 20 µM in the series on hTERT‐RPE‐1 cells; 3000 ± 250 nM in the series with HL‐60 cells; 5.5 ± 1.4 µM in the series with HL‐60R cells [4]. For the same molecule, the “protein expression of antiapoptotic factors XIAP, IAP‐1 and Bcl‐2” value in series [2] is reported as “substantial protein expression decrease”. For the same molecule, the “effect on verapamil‐stimulated P‐gp ATPase activity” value in series [3] is on record as “significative increase”. For the same molecule, the “effect on soluble / polymerized tubulin fraction” value in the series with tubulin in HL‐60 cells and in the series on tubulin in HL‐60R cells was “increasing the soluble fraction of tubulin” each time. Moreover, the “Fluorescence (%) HL‐60R” value in the series on HL‐60R cell line (5.50 µM for 24 h, without doxorubicin) was 0.3 ± 0.1%. Besides, the “Fluorescence (%) HL‐60R (intracellular accumulation of doxorubicin)” value in the series on HL‐60R cell line (pretreated 5.50 µM for 24 h + Doxo 2 µM 1 h) is listed as 22.5 ± 1.1 %. Moreover, in the series with HL‐60R cells [5] (cotreatment at sub-cytotoxic concentrations), the “synergistic / potentiation effect with the reference drugs (VIN or PTX)” value is given as “synergistic effect”.

As for `CC(=O)O[C@H]1C(=O)[C@@]2(C)[C@H]([C@H](OC(=O)c3ccccc3)[C@]3(O)C[C@H](OC(=O)[C@H](O)[C@@H](NC(=O)c4ccccc4)c4ccccc4)C(C)=C1C3(C)C)[C@]1(OC(C)=O)CO[C@@H]1C[C@@H]2O` [Paclitaxel, reference compound], the “Percentage of events accumulated in the pre G0‐G1 position (cell death)” value in the series on HL‐60R cells [1] (48 h, 1 µM) is recorded as 7.6%. Also, the values for the concentration for half-maximal inhibition (IC50) with HL‐60 cells and in the series on HL‐60R cells [4] were 20 ± 40 nM and 1.3 ± 0.14 µM, respectively. In addition, the “effect on soluble / polymerized tubulin fraction” value in the series with tubulin in HL‐60 cells and in the series on tubulin in HL‐60R cells was “marked increase in the polymerized fraction” each time. In the series with HL‐60R cells [5] (HL60R, 48 h, alone at 1 µM, read-out: Cell growth inhibition (%)), the inhibition at 1 µM came to 13 ± 9.2%.

The IC50 is the concentration that inhibits the measured activity by half. As usually defined, the inhibition is the drop in the measured response relative to a control, in per cent.
